Results taken from US8802597B2, “Herbicidal pyrimidines” (E I du Pont de Nemours and Company, priority 2003, dated 2014).

Legend:
Assay in all cases: Test E flooded paddy water application
Assay type in all cases: in vivo
[1] = tested on: barnyardgrass (Echinochloa crus-galli); conditions: Flood, 21 days, scale 0 to 100 (0 no effect, 100 complete control); for Plant response rating, Barnyardgrass: 16 g ai/ha
Procedure, shortened: (§1)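 Response scored visually on a 0–100 scale (100 = complete control) at 21 days against untreated pots. Treatment was into paddy water 3 cm deep over silt loam, with plants at the 2.0–2.5-leaf stage, grown under 16-h light at 29.5/26.7 °C day/night.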

[2] = tested on: bearded (brdd.) sprangletop (Leptochloa fusca ssp. fascicularis); conditions: Flood, 21 days, scale 0 to 100 (0 no effect, 100 complete control)
Procedure, shortened: as §1

[3] = tested on: ducksalad (Heteranthera limosa); conditions: Flood, 21 days, scale 0 to 100 (0 no effect, 100 complete control); for Plant response rating, Ducksalad: 16 g ai/ha
Procedure, shortened: as §1

[4] = tested on: early watergrass (Echinochloa oryzoides); conditions: Flood, 21 days, scale 0 to 100 (0 no effect, 100 complete control); for Plant response rating, Watergrass, Early: 16 g ai/ha
Procedure, shortened: as §1

[5] = tested on: junglerice (Echinochloa colona); conditions: Flood, 21 days, scale 0 to 100 (0 no effect, 100 complete control); for Plant response rating, Junglerice: 16 g ai/ha
Procedure, shortened: as §1

[6] = tested on: purple redstem (Ammannia coccinea); conditions: Flood, 21 days, scale 0 to 100 (0 no effect, 100 complete control); for Plant response rating, Redstem: 16 g ai/ha
Procedure, shortened: as §1

[7] = tested on: rice flatsedge (Cyperus iria); conditions: Flood, 21 days, scale 0 to 100 (0 no effect, 100 complete control)
Procedure, shortened: as §1

[8] = tested on: transplanted rice seedlings (Oryza sativa cv. ‘Japonica-M202’); conditions: Flood, 21 days, scale 0 to 100 (0 no effect, 100 complete control); for Plant response rating, Rice, Transplanted: 16 g ai/ha
Procedure, shortened: as §1

[9] = tested on: water seeded rice seedlings (Oryza sativa cv. ‘Japonica-M202’); conditions: Flood, 21 days, scale 0 to 100 (0 no effect, 100 complete control); for Plant response rating, Rice, Water Seeded: 16 g ai/ha
Procedure, shortened: as §1

**Q.** Which results are given for `CCOC(=O)c1nc(-c2ccc3c(c2)OCO3)nc(N)c1Cl` [Compound 74]?
**A.** Barnyardgrass plant response rating ([1]; 32 g ai/ha): 0; Barnyardgrass plant response rating ([1]; 64 g ai/ha): 0; Barnyardgrass plant response rating ([1]; 250 g ai/ha): 0; Plant response rating, Barnyardgrass [1]: 0; Sprangletop, Brdd. plant response rating ([2]; 32 g ai/ha): 0; Sprangletop, Brdd. plant response rating ([2]; 64 g ai/ha): 0; Sprangletop, Brdd. plant response rating ([2]; 125 g ai/ha): 0; Sprangletop, Brdd. plant response rating ([2]; 250 g ai/ha): 0; Plant response rating, Sprangletop, Brdd. ([2]; 16 g ai/ha): 0; Ducksalad plant response rating ([3]; 32 g ai/ha): 100; Ducksalad plant response rating ([3]; 64 g ai/ha): 100; Ducksalad plant response rating ([3]; 125 g ai/ha): 100; Ducksalad plant response rating ([3]; 250 g ai/ha): 100; Plant response rating, Ducksalad [3]: 100; Watergrass, Early plant response rating ([4]; 32 g ai/ha): 0; Watergrass, Early plant response rating ([4]; 64 g ai/ha): 0; Watergrass, Early plant response rating ([4]; 125 g ai/ha): 0; Watergrass, Early plant response rating ([4]; 250 g ai/ha): 0; Plant response rating, Watergrass, Early [4]: 0; Junglerice plant response rating ([5]; 32 g ai/ha): 0; Junglerice plant response rating ([5]; 64 g ai/ha): 0; Junglerice plant response rating ([5]; 125 g ai/ha): 0; Junglerice plant response rating ([5]; 250 g ai/ha): 65; Plant response rating, Junglerice [5]: 0; Redstem plant response rating ([6]; 32 g ai/ha): 0; Redstem plant response rating ([6]; 64 g ai/ha): 0; Redstem plant response rating ([6]; 125 g ai/ha): 20; Redstem plant response rating ([6]; 250 g ai/ha): 25; Plant response rating, Redstem [6]: 0; Flatsedge, Rice plant response rating ([7]; 32 g ai/ha): 0; Flatsedge, Rice plant response rating ([7]; 64 g ai/ha): 0; Flatsedge, Rice plant response rating ([7]; 125 g ai/ha): 90; Flatsedge, Rice plant response rating ([7]; 250 g ai/ha): 95; Plant response rating, Flatsedge, Rice ([7]; 16 g ai/ha): 0; Rice, Transplanted plant response rating ([8]; 32 g ai/ha): 0; Rice, Transplanted plant response rating ([8]; 64 g ai/ha): 0; Rice, Transplanted plant response rating ([8]; 125 g ai/ha): 0; Rice, Transplanted plant response rating ([8]; 250 g ai/ha): 0; Plant response rating, Rice, Transplanted [8]: 0; Rice, Water Seeded plant response rating ([9]; 32 g ai/ha): 0; Rice, Water Seeded plant response rating ([9]; 64 g ai/ha): 0; Rice, Water Seeded plant response rating ([9]; 125 g ai/ha): 0; Rice, Water Seeded plant response rating ([9]; 250 g ai/ha): 0; Plant response rating, Rice, Water Seeded [9]: 0

**Q.** With `Cc1ccc(-c2nc(N)c(Cl)c(C(=O)O)n2)cc1` [Compound 91] as the molecule, how does the “Barnyardgrass plant response rating” value ([1]; 32 g ai/ha) read?
**A.** The value was 0.

**Q.** What about the “Barnyardgrass plant response rating” value ([1]; 64 g ai/ha) of the same molecule?
**A.** The value was 10.

**Q.** What about the “Barnyardgrass plant response rating” value ([1]; 125 g ai/ha) of the same molecule?
**A.** The value was 10.

**Q.** What about the “Barnyardgrass plant response rating” value ([1]; 250 g ai/ha) of the same molecule?
**A.** The value was 10.

**Q.** And the “Plant response rating, Barnyardgrass” value [1]?
**A.** The value was 0.

**Q.** What about the “Sprangletop, Brdd. plant response rating” value ([2]; 32 g ai/ha) of the same molecule?
**A.** Its value is 0.

**Q.** And the “Sprangletop, Brdd. plant response rating” value ([2]; 64 g ai/ha)?
**A.** The value was 0.

**Q.** What about the “Sprangletop, Brdd. plant response rating” value ([2]; 125 g ai/ha) of the same molecule?
**A.** Its value is 30.

**Q.** What about the “Sprangletop, Brdd. plant response rating” value ([2]; 250 g ai/ha) of the same molecule?
**A.** Its value is 30.

**Q.** And the “Ducksalad plant response rating” value ([3]; 32 g ai/ha)?
**A.** The value was 100.

**Q.** What about the “Ducksalad plant response rating” value ([3]; 64 g ai/ha) of the same molecule?
**A.** The value was 100.

**Q.** What about the “Ducksalad plant response rating” value ([3]; 125 g ai/ha) of the same molecule?
**A.** The value was 100.

**Q.** And the “Ducksalad plant response rating” value ([3]; 250 g ai/ha)?
**A.** The value was 100.

**Q.** And the “Plant response rating, Ducksalad” value [3]?
**A.** The value was 100.

**Q.** And the “Watergrass, Early plant response rating” value ([4]; 32 g ai/ha)?
**A.** The value was 0.

**Q.** What about the “Watergrass, Early plant response rating” value ([4]; 64 g ai/ha) of the same molecule?
**A.** Its value is 0.

**Q.** And the “Watergrass, Early plant response rating” value ([4]; 125 g ai/ha)?
**A.** The value was 0.

**Q.** What about the “Watergrass, Early plant response rating” value ([4]; 250 g ai/ha) of the same molecule?
**A.** Its value is 0.

**Q.** What about the “Plant response rating, Watergrass, Early” value [4] of the same molecule?
**A.** The value was 0.

**Q.** What about the “Junglerice plant response rating” value ([5]; 32 g ai/ha) of the same molecule?
**A.** Its value is 0.

**Q.** And the “Junglerice plant response rating” value ([5]; 64 g ai/ha)?
**A.** The value was 0.

**Q.** And the “Junglerice plant response rating” value ([5]; 125 g ai/ha)?
**A.** The value was 0.

**Q.** And the “Junglerice plant response rating” value ([5]; 250 g ai/ha)?
**A.** Its value is 70.

**Q.** What about the “Plant response rating, Junglerice” value [5] of the same molecule?
**A.** Its value is 0.

**Q.** And the “Redstem plant response rating” value ([6]; 32 g ai/ha)?
**A.** The value was 0.

**Q.** And the “Redstem plant response rating” value ([6]; 64 g ai/ha)?
**A.** Its value is 0.

**Q.** What about the “Redstem plant response rating” value ([6]; 125 g ai/ha) of the same molecule?
**A.** The value was 30.

**Q.** What about the “Redstem plant response rating” value ([6]; 250 g ai/ha) of the same molecule?
**A.** The value was 50.

**Q.** And the “Plant response rating, Redstem” value [6]?
**A.** The value was 0.

**Q.** What about the “Rice, Transplanted plant response rating” value ([8]; 32 g ai/ha) of the same molecule?
**A.** Its value is 0.

**Q.** And the “Rice, Transplanted plant response rating” value ([8]; 64 g ai/ha)?
**A.** Its value is 0.

**Q.** What about the “Rice, Transplanted plant response rating” value ([8]; 125 g ai/ha) of the same molecule?
**A.** The value was 0.

**Q.** What about the “Rice, Transplanted plant response rating” value ([8]; 250 g ai/ha) of the same molecule?
**A.** The value was 10.

**Q.** And the “Plant response rating, Rice, Transplanted” value [8]?
**A.** The value was 0.

**Q.** And the “Rice, Water Seeded plant response rating” value ([9]; 32 g ai/ha)?
**A.** Its value is 0.

**Q.** What about the “Rice, Water Seeded plant response rating” value ([9]; 64 g ai/ha) of the same molecule?
**A.** The value was 10.

**Q.** What about the “Rice, Water Seeded plant response rating” value ([9]; 125 g ai/ha) of the same molecule?
**A.** The value was 10.

**Q.** And the “Rice, Water Seeded plant response rating” value ([9]; 250 g ai/ha)?
**A.** Its value is 20.

**Q.** And the “Plant response rating, Rice, Water Seeded” value [9]?
**A.** The value was 0.
